Data taken from patent US8362256B2, “Salts of N-[4-(1-cyanocyclopentyl)phenyl]-2-(4-pyridylmethyl)amino-3-pyridinecarboxamide” (Jiangsu Hengrui Medicine Co. Ltd., priority 2008, dated 2013).
Marks after values point to notes of the source that are not given here.

What was measured:
c-Kit = c-Kit (Homo sapiens, UniProt P10721); test: ELISA tyrosine kinase inhibition; format: biochemical; conditions: average of 3 experiments; read-out: IC50 ± SD, c-Kit
Experimental: (§1) Phosphorylation of substrate was determined with monoclonal antibody of anti-phosphorylation tyrosine (PY99). Goat anti-mouse IgG marked with HRP was then added, and the degree of phosphorylation of substrate was determined with OPD coloration. At the same time, the control group without tyrosine kinase and control wells of corresponding DMSO concentration were set up. 2 M of H2SO4 was added in 50 μl/well to terminate the reaction. Data was read with adjustable wavelength micro plate enzyme-labeling instrument VERSAmax (Sunnyvale, Calif., U.S.A.), followed by visualization reaction, OD490 nm value was then observed. […] Relative inhibition rate of drugs on tyrosine kinase protein was determined.

KDR = KDR (Homo sapiens, UniProt P35968); test: ELISA tyrosine kinase inhibition; format: biochemical; conditions: average of 3 experiments; read-out: IC50 ± SD, KDR
Experimental: as §1

EGFR1 = EGFR1 (Homo sapiens, UniProt P00533); test: ELISA tyrosine kinase inhibition; format: biochemical
Experimental: (§2) Phosphorylation of substrate was determined with monoclonal antibody of anti-phosphorylation tyrosine (PY99). Goat anti-mouse IgG marked with HRP was then added, and the degree of phosphorylation of substrate was determined with OPD coloration. At the same time, the control group without tyrosine kinase and control wells of corresponding DMSO concentration were set up. 2 M of H2SO4 was added in 50 μl/well to terminate the reaction. Data was read with adjustable wavelength micro plate enzyme-labeling instrument VERSAmax (Sunnyvale, Calif., U.S.A.), followed by visualization reaction, OD490 nm value was then observed.
(§3) Relative inhibition rate of drugs on tyrosine kinase protein was determined.

c-Src = c-Src (Homo sapiens, UniProt P12931); test: ELISA tyrosine kinase inhibition; format: biochemical; conditions: average of 3 experiments; read-out: IC50 ± SD, c-Src
Experimental: as §2, §3

Flt1 = Flt1 (Homo sapiens, UniProt P17948); test: ELISA tyrosine kinase inhibition; format: biochemical; conditions: average of 3 experiments; read-out: IC50 ± SD, Flt1
Experimental: as §2, §3

ErbB2 = ErbB2 (Homo sapiens, UniProt P04626); test: ELISA tyrosine kinase inhibition; format: biochemical
Experimental: as §2, §3

FGFR1 = FGFR1 (Homo sapiens, UniProt P11362); test: ELISA tyrosine kinase inhibition; format: biochemical
Experimental: as §2, §3

PDGFRβ = PDGFRβ (Homo sapiens, UniProt P09619); test: ELISA tyrosine kinase inhibition; format: biochemical; conditions: average of 3 experiments; read-out: IC50 ± SD, PDGFRβ
Experimental: as §2, §3

Solubility = format: physicochemical
[1] = test system: human colon cancer Ls174t; test: Efficacy on human colon cancer Ls174t transplanted in nude mice; conditions: for Weight after Removing Tumor, d0 / TV x ± SD, d0: d0 baseline; for RTV x ± SD / T/C / TV x ± SD, dn: dn 14 days; for Weight after Removing Tumor, dn: dn 14 days after first administration
Experimental: BALB/cA-nude mice, ♀, 5-6 weeks-old, available from Shanghai Slaccas experimental animals limited liability company. […] Rearing environment: SPF grade.
After one week adaption, the experimental animals were subcutaneously inoculated with human colon cancer Ls174t tumor tissues. When the tumors grew to 100-300 mm^3, the animals were randomly divided into several groups in day 0 (d0). […] The volumes of tumors and the weights of mice were measured 2-3 times every week, the data of which were recorded. The equation for the calculation of volume of tumors (V) is: V=½×a×b^2 wherein a and b represent length and width, respectively.

in vivo = conditions: male, Sprague-Dawley, rat, po; for MRT: MRT of compound A; for Tmax: Tmax of compound A
Text: Male Sprague-Dawley (SD) rats (weight: about 250 g, experimental animal certification of fitness: 0006473) were purchased from Shanghai Slaccas experimental animals limited liability company (certification number: SCXK (Hu) 2003-0003). The relevant qualifications and state of health of the SD rats were checked first, and the eligible ones were placed into the clean grade chambers of rats in Shanghai institute of Materia Medica.
I. Analysis Condition of LC/MS/MS
Analysis Condition of Liquid Chromatography
Chromatographic column: Agilent Zorbax SB-C18 column (50 mm×2.1 mm ID);
Column temperature: 25° C.;
Mobile phase: A: H2O—CH3CN (2:98, v/v), B: H2O—CH3CN (10:90, v/v)
A: 25%+B: 75%, constant gradient elution;
Analysis time: 3 minutes.
The light circle was switched to 12/12 hour day/night in the clean grade chambers of rats. Humidity and temperature were 40-60% and 20-24° C., respectively. Every 4 rats were raised in a 36×24×19 cm^3 stainless rat cage. The rats took water freely and were fed special rat food regularly once daily. Only after one week adaption, the rats were used to conduct pharmacokinetics studies. 12 Sprague-Dawley rats were divided into 4 groups, 3 for each group.
The blood samples were collected 0 hour before the administration and 0.083, 0.25, 0.5, 1.0, 2, 4, 6, and 8 hours after the administration. The blood samples were collected at 250˜300 μL at each time point from posterior venous sinus of the eye after respiration anaesthesia with ether (the degree of anaesthesia was highly controlled). The blood was collected into test tubes containing heparin, and then was centrifuged to produce plasma. The obtained plasma was divided into 2 parts (50 μL for each part) and stored at −70° C. until analysis. […] After experiments, euthanasia was performed with CO2 gas.
Pharmacokinetics parameters of animal experiment of each group were calculated using InnaPhase Kinetica™ software (America).

[2] = concentration increased to 10^4 nM
[3] = 50 mg/kg p.o. once daily d0-d13
[4] = 100 mg/kg p.o. once daily d0-d13
[5] = 200 mg/kg p.o. once daily d0-d13

FGFR1, sequence (P11362 22-822, species assumed): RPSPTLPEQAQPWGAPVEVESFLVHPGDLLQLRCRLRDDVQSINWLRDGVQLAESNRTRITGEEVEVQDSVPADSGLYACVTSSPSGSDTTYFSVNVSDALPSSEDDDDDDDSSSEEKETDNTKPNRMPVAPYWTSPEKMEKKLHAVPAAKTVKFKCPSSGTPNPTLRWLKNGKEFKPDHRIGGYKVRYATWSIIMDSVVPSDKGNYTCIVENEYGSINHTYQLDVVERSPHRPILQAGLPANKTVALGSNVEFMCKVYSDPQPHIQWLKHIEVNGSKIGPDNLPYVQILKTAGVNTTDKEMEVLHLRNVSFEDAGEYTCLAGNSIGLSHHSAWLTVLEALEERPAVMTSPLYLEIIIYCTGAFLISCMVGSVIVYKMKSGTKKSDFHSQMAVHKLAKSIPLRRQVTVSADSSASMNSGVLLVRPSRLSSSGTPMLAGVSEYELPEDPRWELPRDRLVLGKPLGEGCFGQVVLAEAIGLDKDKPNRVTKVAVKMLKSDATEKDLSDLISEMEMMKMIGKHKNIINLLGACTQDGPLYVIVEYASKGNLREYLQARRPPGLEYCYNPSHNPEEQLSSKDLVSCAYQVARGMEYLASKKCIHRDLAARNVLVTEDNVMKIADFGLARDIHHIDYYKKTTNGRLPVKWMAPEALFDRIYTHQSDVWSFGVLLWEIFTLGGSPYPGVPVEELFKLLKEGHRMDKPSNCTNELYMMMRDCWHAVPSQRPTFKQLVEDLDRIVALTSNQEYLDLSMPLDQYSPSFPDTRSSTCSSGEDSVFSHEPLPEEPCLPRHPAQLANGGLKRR
EGFR1, sequence (P00533 25-1210): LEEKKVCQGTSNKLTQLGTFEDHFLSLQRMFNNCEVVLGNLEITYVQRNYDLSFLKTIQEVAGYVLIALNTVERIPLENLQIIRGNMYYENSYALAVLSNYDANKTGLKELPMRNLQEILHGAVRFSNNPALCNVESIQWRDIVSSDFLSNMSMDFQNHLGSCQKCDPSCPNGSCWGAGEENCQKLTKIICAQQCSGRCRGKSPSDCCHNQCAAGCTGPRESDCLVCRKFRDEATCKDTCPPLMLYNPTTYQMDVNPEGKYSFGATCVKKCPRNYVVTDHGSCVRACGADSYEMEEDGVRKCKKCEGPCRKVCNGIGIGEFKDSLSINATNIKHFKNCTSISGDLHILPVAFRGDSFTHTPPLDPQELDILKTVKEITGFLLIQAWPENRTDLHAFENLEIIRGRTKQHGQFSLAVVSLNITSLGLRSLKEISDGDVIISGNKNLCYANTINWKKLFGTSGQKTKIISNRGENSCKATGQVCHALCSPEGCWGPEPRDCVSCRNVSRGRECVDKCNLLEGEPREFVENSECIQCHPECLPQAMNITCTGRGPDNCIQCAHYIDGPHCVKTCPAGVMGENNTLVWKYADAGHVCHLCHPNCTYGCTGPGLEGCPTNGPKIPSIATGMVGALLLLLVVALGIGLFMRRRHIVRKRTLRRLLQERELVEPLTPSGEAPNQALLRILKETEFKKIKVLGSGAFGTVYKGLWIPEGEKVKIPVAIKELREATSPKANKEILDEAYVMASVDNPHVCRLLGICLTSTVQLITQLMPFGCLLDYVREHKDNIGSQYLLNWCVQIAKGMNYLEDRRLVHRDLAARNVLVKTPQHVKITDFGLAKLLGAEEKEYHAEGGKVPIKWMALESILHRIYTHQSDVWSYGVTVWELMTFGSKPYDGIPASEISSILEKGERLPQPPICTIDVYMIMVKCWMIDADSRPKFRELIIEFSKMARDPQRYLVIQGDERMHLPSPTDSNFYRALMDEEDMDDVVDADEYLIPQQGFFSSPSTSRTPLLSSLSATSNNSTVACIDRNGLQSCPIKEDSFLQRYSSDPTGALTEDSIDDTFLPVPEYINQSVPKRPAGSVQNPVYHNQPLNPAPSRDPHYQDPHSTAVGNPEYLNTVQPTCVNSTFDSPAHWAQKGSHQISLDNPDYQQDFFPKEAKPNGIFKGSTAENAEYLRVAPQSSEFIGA
ErbB2, sequence (P04626 23-1255, species assumed): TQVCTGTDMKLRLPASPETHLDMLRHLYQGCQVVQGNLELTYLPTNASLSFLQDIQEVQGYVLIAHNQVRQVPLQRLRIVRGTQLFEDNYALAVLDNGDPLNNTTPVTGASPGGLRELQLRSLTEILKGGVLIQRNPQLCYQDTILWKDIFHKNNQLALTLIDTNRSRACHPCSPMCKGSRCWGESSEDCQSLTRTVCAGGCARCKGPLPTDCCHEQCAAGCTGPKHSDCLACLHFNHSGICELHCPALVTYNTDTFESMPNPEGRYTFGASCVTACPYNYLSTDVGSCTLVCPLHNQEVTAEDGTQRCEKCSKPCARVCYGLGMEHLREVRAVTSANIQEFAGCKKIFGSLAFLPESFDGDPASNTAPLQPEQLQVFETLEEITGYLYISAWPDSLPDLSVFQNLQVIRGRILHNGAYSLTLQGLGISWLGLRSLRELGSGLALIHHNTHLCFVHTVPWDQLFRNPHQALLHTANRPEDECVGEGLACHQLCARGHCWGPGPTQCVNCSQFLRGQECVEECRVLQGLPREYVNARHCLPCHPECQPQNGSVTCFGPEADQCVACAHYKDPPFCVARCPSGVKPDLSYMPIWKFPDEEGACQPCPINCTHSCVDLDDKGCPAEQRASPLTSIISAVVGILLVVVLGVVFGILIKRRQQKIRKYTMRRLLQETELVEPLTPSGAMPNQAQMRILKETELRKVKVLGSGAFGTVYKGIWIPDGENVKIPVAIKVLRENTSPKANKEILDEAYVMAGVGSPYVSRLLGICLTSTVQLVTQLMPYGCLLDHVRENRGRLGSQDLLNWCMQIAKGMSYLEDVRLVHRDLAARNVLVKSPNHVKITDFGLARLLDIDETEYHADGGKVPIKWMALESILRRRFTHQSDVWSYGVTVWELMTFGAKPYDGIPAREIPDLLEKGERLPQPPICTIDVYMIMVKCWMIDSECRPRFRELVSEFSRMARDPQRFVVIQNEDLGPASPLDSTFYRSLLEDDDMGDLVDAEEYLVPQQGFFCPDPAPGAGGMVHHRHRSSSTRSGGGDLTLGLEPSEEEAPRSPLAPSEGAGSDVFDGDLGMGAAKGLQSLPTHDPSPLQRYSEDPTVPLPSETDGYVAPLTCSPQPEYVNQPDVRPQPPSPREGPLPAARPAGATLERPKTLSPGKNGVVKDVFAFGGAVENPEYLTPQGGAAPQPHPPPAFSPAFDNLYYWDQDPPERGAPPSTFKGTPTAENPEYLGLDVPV
c-Kit, sequence (P10721 26-976): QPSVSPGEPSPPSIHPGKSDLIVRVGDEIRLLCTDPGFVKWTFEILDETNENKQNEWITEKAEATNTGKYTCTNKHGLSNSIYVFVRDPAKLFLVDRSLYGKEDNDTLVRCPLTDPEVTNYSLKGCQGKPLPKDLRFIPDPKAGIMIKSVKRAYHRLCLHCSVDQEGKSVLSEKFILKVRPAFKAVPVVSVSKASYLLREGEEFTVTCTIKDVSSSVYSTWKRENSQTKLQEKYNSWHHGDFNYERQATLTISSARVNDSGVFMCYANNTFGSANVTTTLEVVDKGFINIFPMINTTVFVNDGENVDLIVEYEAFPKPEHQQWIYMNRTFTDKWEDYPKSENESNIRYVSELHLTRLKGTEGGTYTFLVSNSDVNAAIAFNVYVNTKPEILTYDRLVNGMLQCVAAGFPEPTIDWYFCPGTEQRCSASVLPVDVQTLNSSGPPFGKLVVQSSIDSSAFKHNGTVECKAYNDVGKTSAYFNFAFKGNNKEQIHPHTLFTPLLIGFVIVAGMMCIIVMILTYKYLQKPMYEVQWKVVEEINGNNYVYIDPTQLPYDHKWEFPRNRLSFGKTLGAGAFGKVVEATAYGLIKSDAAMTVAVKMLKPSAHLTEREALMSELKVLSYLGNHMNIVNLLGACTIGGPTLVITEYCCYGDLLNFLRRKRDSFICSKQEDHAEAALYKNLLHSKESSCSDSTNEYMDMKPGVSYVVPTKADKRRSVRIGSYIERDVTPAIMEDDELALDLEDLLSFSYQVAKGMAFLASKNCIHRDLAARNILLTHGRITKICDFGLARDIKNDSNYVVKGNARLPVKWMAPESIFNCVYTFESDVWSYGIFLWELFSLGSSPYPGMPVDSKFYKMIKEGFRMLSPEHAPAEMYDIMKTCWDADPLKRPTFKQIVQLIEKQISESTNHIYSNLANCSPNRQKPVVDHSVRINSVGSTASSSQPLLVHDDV
c-Src, sequence (P12931 whole entry, species assumed): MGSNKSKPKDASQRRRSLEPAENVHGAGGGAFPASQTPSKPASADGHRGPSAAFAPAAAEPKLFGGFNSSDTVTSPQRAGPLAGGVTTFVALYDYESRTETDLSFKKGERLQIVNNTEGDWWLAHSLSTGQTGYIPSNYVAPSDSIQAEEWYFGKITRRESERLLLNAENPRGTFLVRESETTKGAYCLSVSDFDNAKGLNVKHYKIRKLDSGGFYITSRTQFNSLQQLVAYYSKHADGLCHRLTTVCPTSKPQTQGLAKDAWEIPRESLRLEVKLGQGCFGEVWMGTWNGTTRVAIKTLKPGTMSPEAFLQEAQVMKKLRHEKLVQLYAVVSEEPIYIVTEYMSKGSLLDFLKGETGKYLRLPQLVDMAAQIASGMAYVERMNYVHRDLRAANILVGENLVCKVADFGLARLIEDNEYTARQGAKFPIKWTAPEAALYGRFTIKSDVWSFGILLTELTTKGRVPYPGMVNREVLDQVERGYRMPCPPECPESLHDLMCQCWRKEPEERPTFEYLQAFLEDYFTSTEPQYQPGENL

For N#CC1(c2ccc(NC(=O)c3cccnc3NCc3ccncc3)cc2)CCCC1 [Mesylate of compound A], the IC50 (c-Kit) was 0.42 µM, the IC50 (KDR) was 0.00243 µM and the IC50 (EGFR1; average of 3 experiments, read-out: IC50 ± SD, EGFR1) was > 10 µM. The “inhibition on EGFR1” value (EGFR1; [2]) was “no inhibition”, the IC50 (c-Src) was 0.349 µM and the IC50 (Flt1) was 0.0701 µM. For the same compound, the IC50 (ErbB2; average of 3 experiments, read-out: IC50 ± SD, ErbB2) was > 10 µM, the “inhibition on ErbB2” value (ErbB2; [2]) was “no inhibition” and the IC50 (FGFR1; average of 3 experiments, read-out: IC50 ± SD, FGFR1) was > 10 µM. The “inhibition on FGFR1” value (FGFR1; [2]) was “no inhibition”, the IC50 (PDGFRβ) was 0.537 µM and the Solubility in water (Solubility) was “Insoluble”. The “Weight after Removing Tumor, d0” value [1, 3] was 19.1 g, the “RTV x ± SD” value [1, 3] was 9.8 ± 3.0 and the T/C [1, 3] was 79.7%. The “TV x ± SD, dn” value [1, 3] was 1452 ± 149, the “Weight after Removing Tumor, dn” value [1, 3] was 16.8 g and the “TV x ± SD, d0” value ([1]; 50 mg/kg p.o.) was 155 ± 33. For the same compound, the “Weight after Removing Tumor, d0” value [1, 4] was 19.0 g, the “RTV x ± SD” value [1, 4] was 6.4 ± 3.1 and the T/C [1, 4] was 52.0^a %. The “TV x ± SD, dn” value [1, 4] was 931 ± 196, the “Weight after Removing Tumor, dn” value [1, 4] was 18.5 g and the “TV x ± SD, d0” value ([1]; 100 mg/kg p.o.) was 161 ± 44. For the same compound, the “Weight after Removing Tumor, d0” value [1, 5] was 18.6 g, the “RTV x ± SD” value [1, 5] was 2.0 ± 0.9 and the “TV x ± SD, dn” value [1, 5] was 310 ± 114. For the same compound, the “Weight after Removing Tumor, dn” value [1, 5] was 18.5 g, the T/C ([1]; 200 mg/kg p.o. once daily d0-d13, listed as Mesylate of Compound A) was 16.3^a % and the T/C ([1]; 200 mg/kg p.o. once daily d0-d13, listed as mesylate of compound A) was 16.3%. The “TV x ± SD, d0” value ([1]; 200 mg/kg p.o.) was 158 ± 20, the “efficacy at 400 mg/kg” value ([1]; 400 mg/kg) was “did not increase significantly” and the ED50 ([1]; Mus musculus, LS174T, read-out: ED50 on colon cancer Ls174t) was 97.2 mg/kg. The “tolerance at 400 mg/kg” value ([1]; mouse, in vivo) was “could be tolerated by mice”, the AUC(0-t) (in vivo; 1 mmol/kg, AUC0→8 h Mol dose) was 17200 ± 6980 ng·h/mL and the AUC(0-t) (in vivo; 20 mg/kg, AUC0→8 h of compound A, Mean ± SD) was 697 ± 283 ng·h/mL. It also gave a concentration at 0 h (in vivo; 20 mg/kg, Blood Concentration of compound A, 0 h) of 0 ng/mL, a concentration at 4 h (in vivo; 20 mg/kg, Blood Concentration of compound A, 4 h) of 30.5 ng/mL and a concentration at 8 h (in vivo; 20 mg/kg, Blood Concentration of compound A, 8 h) of 29.9 ng/mL. The Cmax (in vivo; 20 mg/kg, Cmax of compound A, Mean ± SD) was 489 ± 296 ng/mL, the MRT (in vivo; 20 mg/kg) was 70.8 min and the MRT (in vivo; 20 mg/kg, Mean ± SD) was 98.4 ± 28.8 min. For the same compound, the half-life (in vivo; 20 mg/kg, T1/2 of compound A, Mean ± SD) was 52.2 ± 23.4 min, the Tmax (in vivo; 20 mg/kg) was 15 min and the Tmax (in vivo; 20 mg/kg, Mean ± SD) was 19.8 ± 8.4 min.
